Measurements reported in patent US4997843A, “2,4-disubstituted derivatives of tetrahydrofuran useful for the treatment of PAF mediated illnesses” (J Uriach & Cia S.A., priority 1987, dated 1991).
Like-named read-outs stand apart in the source and are kept apart here.

What was measured:
[1] = test system: platelet aggregation induced by PAF; test: Test 1: inhibition of platelet aggregation induced by PAF in vitro (rabbit platelet rich plasma, Born nephelometric technique); format: cell-based, male New Zealand albino rabbits; conditions: PAF C18 16 nM final, read-out: IC50 (concentration of the drug needed to inhibit the platelet aggregation in a 50%)
Procedure: TEST 1: INHIBITION OF PLATELET AGGREGATION INDUCED BY PAF
The platelet rich plasma (PRP) is prepared by blood centrifugation at 250 xg for 10 min. at 4° C. and it is diluted with platelet poor plasma (PPP) obtained by additional centrifugation at 300 xg for 10 min. The amount of platelets is adjusted to […].

[2] = test system: hypotension induced by PAF; test: Test 2: inhibition of the hypotensive effect induced by PAF in normotense rats; format: in vivo, male Sprague Dawley rats; conditions: anesthetized rats, compound via femoral vein 3 min before PAF (0.5 mg/Kg, i.v.); for ED50: Rattus norvegicus, iv, read-out: IC50 (inhibition of the hypotension induced by PAF)
Procedure: TEST 2--INHIBITION OF THE HYPOTENSIVE EFFECT INDUCED BY PAF IN NORMOTENSE RATS
Male Sprague Dawley rats, of 180-220 g of weight, anesthetized with sodium pentobarbital (50 mg/Kg, i.p. 1 mL/100 g) have been used. In order to measure the average arterial pressure a polyethylene catheter was introduced into the carotid artery. The arterial pressure was recorded with the help of a transducer connected with a R611 Beckman polygraph. The tested compounds were administrated through the femoral vein 3 min. before the injection of PAF (0.5 mg/Kg, i.v.).

[3] = Oryctolagus cuniculus, Platelet

SMILES	IC50 [1, 3]	IC50 [1]	IC50 (inhibition of the hypotension induced by PAF) [2]	ED50 [2]
CCCCCCCCCCCCCCCNC(=O)OCC1COC(COC(=O)CCCCC[n+]2ccsc2)C1 (racemic) [Compound 7, (±)-cis, trans-3-[6-oxo-6-[(4-pentadecylaminocarbonyloxymethyltetrahydrofuran-2-yl)methoxy]hexyl]thiazolium 4-methylbenzenesulfonate]	5900 nM	–	–	3.6 mg/kg
CCCCCCCCCCCCCCCCOCC1COC(COC(=O)N(Cc2cccc[n+]2CC)C(C)=O)C1 (racemic) [Compound 13, (±)-cis, trans-N-ethyl-2-[N-acetyl-[[[(4-hexadecyloxymethyltetrahydrofuran-2-yl)methoxy]carbonyl]amino]methyl]pyridinium iodide]	–	22 nM	–	0.035 mg/kg
CCCCCCCCCCCCCCCCOCC1COC(COC(=O)N(Cc2cccc[n+]2CC)C(C)=O)C1 (racemic) [Compound 58, (±)-cis, trans-N-ethyl-2-[N-acetyl-[[[(4-hexadecyloxymethyltetrahydrofuran-2-yl)methoxy]carbonyl]amino]methyl]pyridinium chloride]	–	9 nM	0.044 mg/Kg, i.v.	–
CCCCCCCCCCCCCCCCCCOCC1CC(COCCCCCCC[n+]2ccsc2)CO1 (racemic) [Compound 61, (±)-cis, trans-3-[7-[(2-octadecyloxymethyltetrahydrofuran-4-yl)methoxy]heptyl]thiazolium chloride]	2000 nM	–	–	2.1 mg/kg
CCCCCCCCCCCCCCOCC1COC(COCCCCCC[n+]2ccsc2)C1 (racemic) [Compound 3, (±)-cis, trans-3-[6-[(4-tetradecyloxymethyltetrahydrofuran-2-yl)methoxy]hexyl]thiazolium 4-methylbenzenesulfonate]	700 nM	–	–	3 mg/kg
CCCCCCCCCCCCCCCCOCC1COC(COC(=O)NCc2cccc[n+]2CC)C1 (racemic) [Compound 10, (±)-cis, trans-N-ethyl-2-[[[(4-hexadecyloxymethyltetrahydrofuran-2-yl)methoxy]carbonyl]amino]methylpyridinium iodide]	3800 nM	–	–	6.6 mg/kg
CCCCCCCCCCCCCCC1COC(COCCCCCC[n+]2ccsc2)C1 (racemic) [Compound 70, (±)-cis, trans-3-[6-[(4-tetradecyltetrahydrofuran-2-yl)methoxy]hexyl]thiazolium 4-methylbenzenesulphonate]	2200 nM	–	–	2.2 mg/kg

More lines, in order of falling IC50 [1, 3], values ahead:

IC50 [1, 3]	IC50 [1]	IC50 (inhibition of the hypotension induced by PAF) [2]	SMILES	ED50 [2]
90 nM	–	–	CCCCCCCCCCCCCCCCCCOCC1COC(COC(=O)N(Cc2cccc[n+]2C)C(C)=O)C1 (racemic) [Compound 19, (±)-cis, trans-N-methyl-2-[N-acetyl-[[[(4-octadecyloxymethyltetrahydrofuran-2-yl)methoxy]carbonyl]amino]methyl]pyridinium iodide]	0.14 mg/kg
34 nM	–	–	CCCCCCCCCCCCCCCCCCOCC1COC(COC(=O)N(Cc2cccc[n+]2CC)C(C)=O)C1 (racemic) [Compound 20, (±)-cis, trans-N-ethyl-2-[N-acetyl-[[[(4-octadecyloxymethyltetrahydrofuran-2yl)methoxy]carbonyl]amino]methyl]pyridinium iodide]	0.035 mg/kg
27 nM	–	–	CCCCCCCCCCCCCCCCCNC(=O)OCC1COC(COC(=O)N(Cc2cccc[n+]2CC)C(C)=O)C1 (racemic) [Compound 53, (±)-cis, trans-N-ethyl-2-[N-acetyl-[[[(4-heptadecylaminocarbonyloxymethyltetrahydrofuran-2-yl)methoxy]carbonyl]amino]methyl]pyridinium iodide]	0.042 mg/kg
4.5 nM	–	–	CCCCCCCCCCCCCCCNC(=O)OCC1COC(COC(=O)N(Cc2cccc[n+]2CC)C(C)=O)C1 (racemic) [Compound 49, (±)-cis, trans-N-ethyl-2-[N-acetyl-[[[(4-pentadecylaminocarbonyloxymethyltetrahydrofuran-2-yl)methoxy]-carbonyl]amino]methyl]pyridinium iodide]	0.033 mg/kg
